Assay results: patent US9371292B2, “Quinazoline derivative, preparation method therefor, intermediate, composition and application thereof” (SHANGHAI PHARMACEUTICALS HOLDINGS CO., LTD., priority 2011, dated 2016)

Tests used:
EGFR tyrosine kinase = molecular target: T1, EGFR tyrosine kinase (Homo sapiens, UniProt P00533); test: HTRF assay, inhibition of EGFR tyrosine kinase; format: biochemical; conditions: HTRF method
T1 construct: purchased Sigma Aldrich
Procedure: The activity of inhibitory against the kinase of the test compound is expressed by IC50. The assays are performed by Homogeneous time-resolved fluorescence (HTRF) method which is as follows: a series of synthesized analogues with gradient concentration are incubated for 5 minutes in enzymatic solution with specific concentration (for EGFR) at room temperature. Then proper amount of substrate and ATP are added into the reaction mixture to start the enzyme reaction. The assays of the specific concentration of compound is measured by Flexstation III of Molecular device company after the stop buffer and detecting liquid are added to the enzyme reaction system and hatch at room temperature for 1 hour. And the activity of inhibitory against the kinase of the test compound with different concentration will be calculated, then according to the 4-parameter equation, fit the inhibitory activity of the test compound with different concentration to get the IC50. EGFR is purchased from Sigma Aldrich. The HTRF KinEASE-TK is purchased from Cisbio Bioassays. ATP is purchased from Sigma Aldrich.

A431 cell = test: Proliferation inhibition, A431 cells (CellTiter-Glo); format: cell-based; conditions: Homo sapiens, A-431, 48 hours
Procedure: (§1) This example is to determine the proliferation inhibitory activity against wide type of high expression cell lines A431 of EGFR and mutant cell lines NCI-H1975^L858RT790M, the proliferation inhibitory activity in cell-based level of compound is expressed by IC50. The test method is as follows: both cell lines are purchased from American type culture collection (ATCC). The cells are seeded in a white and opaque 384-well culture plate with a proper concentration (A431: 20000 cells/ml medium; H1975: 15000 cells/ml medium), cultured at 37° C. with 5% CO2 for 24 hrs, a series of medicine with gradient concentration is added, generally 10 concentrations, cultured for another 48 hours under the previous conditions. The assays of the proliferation inhibitory activity against the A431 and H1975 cell of the test compounds are performed by the CellTiter-Glo Luminescent Cell Viability Assay and calculate the proliferation inhibitory activity of compound with different concentrations. CellTiter-Glo Luminescent Cell Viability Assay is purchased from Promega. Fit the data of proliferation inhibitory activity against A431 and H1975 of compounds with different concentrations with 4-parameter equation.

[1] = system: NCI-H1975 L858R T790M cell; test: Proliferation inhibition, H1975 cells (CellTiter-Glo); format: cell-based; conditions: Homo sapiens, 48 hours
Procedure: as §1

T1 sequence (P00533 25-1210): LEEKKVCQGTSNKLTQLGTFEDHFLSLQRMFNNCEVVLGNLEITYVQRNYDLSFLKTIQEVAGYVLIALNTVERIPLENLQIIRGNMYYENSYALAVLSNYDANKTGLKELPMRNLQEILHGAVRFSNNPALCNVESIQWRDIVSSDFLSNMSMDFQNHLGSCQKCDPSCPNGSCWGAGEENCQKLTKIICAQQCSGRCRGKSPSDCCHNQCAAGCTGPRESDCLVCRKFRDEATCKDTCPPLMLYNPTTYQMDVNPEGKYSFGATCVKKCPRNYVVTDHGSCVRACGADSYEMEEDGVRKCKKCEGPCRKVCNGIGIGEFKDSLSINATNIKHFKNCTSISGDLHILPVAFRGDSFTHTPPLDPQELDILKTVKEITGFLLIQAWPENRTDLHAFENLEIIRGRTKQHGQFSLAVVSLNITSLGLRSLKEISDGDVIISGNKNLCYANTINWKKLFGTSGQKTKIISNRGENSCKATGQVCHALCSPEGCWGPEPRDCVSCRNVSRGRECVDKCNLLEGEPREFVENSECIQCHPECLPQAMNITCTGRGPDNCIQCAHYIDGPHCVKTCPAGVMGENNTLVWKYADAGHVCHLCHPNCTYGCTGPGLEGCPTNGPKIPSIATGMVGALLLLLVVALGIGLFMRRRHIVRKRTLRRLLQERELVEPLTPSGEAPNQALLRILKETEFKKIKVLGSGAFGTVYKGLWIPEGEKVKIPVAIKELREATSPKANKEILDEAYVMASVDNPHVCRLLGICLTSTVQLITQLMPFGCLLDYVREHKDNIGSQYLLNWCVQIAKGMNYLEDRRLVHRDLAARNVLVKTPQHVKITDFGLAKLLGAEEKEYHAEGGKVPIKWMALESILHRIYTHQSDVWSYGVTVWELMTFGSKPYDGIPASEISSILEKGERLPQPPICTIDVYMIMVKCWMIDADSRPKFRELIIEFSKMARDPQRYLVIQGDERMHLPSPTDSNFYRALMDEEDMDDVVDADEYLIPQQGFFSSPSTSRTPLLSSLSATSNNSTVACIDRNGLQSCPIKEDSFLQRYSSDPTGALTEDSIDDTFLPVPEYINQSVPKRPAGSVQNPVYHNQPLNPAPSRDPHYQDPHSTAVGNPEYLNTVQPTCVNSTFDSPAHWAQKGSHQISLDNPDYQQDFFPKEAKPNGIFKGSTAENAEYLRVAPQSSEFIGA

IC50 (EGFR tyrosine kinase) [nM] | IC50 (A431 cell) [nM] | IC50 [1] [nM] | SMILES
4.5 | 3600 | 2700 | C=C(F)C(=O)Nc1cc2c(Nc3ccc(F)c(Cl)c3)ncnc2cc1OC1CCN(C)C1 (stereo in doubt) [Compound 64, (S)-N-[4-(3-chloro-4-fluoro-phenylamino)-7-(1-methyl-pyrrolidin-3-yloxy)-quinazolin-6-yl]-2-fluoro-acrylamide]
 |  | 1000 | COc1cc2ncnc(Nc3ccc(F)c(Cl)c3)c2cc1NC(=O)/C(F)=C/CN1CCCCC1 [Compound 8-1, (Z)—N-(4-((3-chloro-4-fluorophenyl)amino)-7-methoxyquinazolin-6-yl)-2-fluoro-4-(piperidin-1-yl)but-2-enamide]
 | 2100 |  | COc1cc2ncnc(Nc3ccc(F)c(Cl)c3)c2cc1NC(=O)/C(F)=C\CN1CCCCC1 [Compound 8-2, (E)-N-(4-((3-chloro-4-fluorophenyl)amino)-7-methoxyquinazolin-6-yl)-2-fluoro-4-(piperidin-1-yl)but-2-enamide]
0.57 |  |  | CCOc1cc2ncnc(Nc3ccc(OCc4ccccn4)c(Cl)c3)c2cc1NC(=O)/C(F)=C/CN(C)C [Compound 19-1, (Z)-N-(4-((3-chloro-4-(pyridin-2-ylmethoxy)phenyl)amino)-7-ethoxyquinazolin-6-yl)-4-(dimethylamino)-2-fluorobut-2-enamide]
0.89 |  | 1100 | CCOc1cc2ncnc(Nc3ccc(OCc4ccccn4)c(Cl)c3)c2cc1NC(=O)/C(F)=C\CN(C)C [Compound 19-2, (E)-N-(4-((3-chloro-4-(pyridin-2-ylmethoxy)phenyl)amino)-7-ethoxyquinazolin-6-yl)-4-(dimethylamino)-2-fluorobut-2-enamide]
 | 12000 | 4300 | O=C(Nc1cc2c(Nc3ccc(F)c(Cl)c3)ncnc2cc1O[C@H]1CCOC1)/C(F)=C/CN1CCOCC1 [Compound 20-1, (S,Z)-N-(4-((3-chloro-4-fluorophenyl)amino)-7-((tetrahydrofuran-3-yl)oxy)quinazolin-6-yl)-2-fluoro-4-morpholinobut-2-enamide]
 | > 100000 | 2300 | O=C(Nc1cc2c(Nc3ccc(F)c(Cl)c3)ncnc2cc1O[C@H]1CCOC1)/C(F)=C\CN1CCOCC1 [Compound 20-2, (S,E)-N-(4-((3-chloro-4-fluorophenyl)amino)-7-((tetrahydrofuran-3-yl)oxy)quinazolin-6-yl)-2-fluoro-4-morpholinobut-2-enamide]
0.16 | 98000 | 1200 | CN(C)C/C=C(\F)C(=O)Nc1cc2c(Nc3ccc(F)c(Cl)c3)ncnc2cc1O[C@H]1CCOC1 [Compound 21-1, (S,Z)-N-(4-((3-chloro-4-fluorophenyl)amino)-7-((tetrahydrofuran-3-yl)oxy)quinazolin-6-yl)-4-(dimethylamino)-2-fluorobut-2-enamide]
0.31 | 3100 | 1500 | CN(C)C/C=C(/F)C(=O)Nc1cc2c(Nc3ccc(F)c(Cl)c3)ncnc2cc1O[C@H]1CCOC1 [Compound 21-2, (S,E)-N-(4-((3-chloro-4-fluorophenyl)amino)-7-((tetrahydrofuran-3-yl)oxy)quinazolin-6-yl)-4-(dimethylamino)-2-fluorobut-2-enamide]
0.53 | 8100 | 3700 | COc1cc2ncnc(Nc3ccc(F)c(Cl)c3)c2cc1NC(=O)/C(F)=C/CN1CCOCC1 [Compound 22-1, (Z)-N-(4-((3-chloro-4-fluorophenyl)amino)-7-methoxyquinazolin-6-yl)-2-fluoro-4-morpholinobut-2-enamide]
0.3 | 2900 | 2400 | COc1cc2ncnc(Nc3ccc(F)c(Cl)c3)c2cc1NC(=O)/C(F)=C\CN1CCOCC1 [Compound 22-2, (E)-N-(4-((3-chloro-4-fluorophenyl)amino)-7-methoxyquinazolin-6-yl)-2-fluoro-4-morpholinobut-2-enamide]
1.6 | 1300 | 3000 | C=C(F)C(=O)Nc1cc2c(Nc3ccc(Br)cc3F)ncnc2cc1OCCCN1CCOCC1 [Compound 23, N-[4-(4-Bromo-2-fluoro-phenylamino)-7-(3-morpholin-4-yl-propoxy)-quinazolin-6-yl]-2-fluoro-acrylamide]
0.19 | 1300 | 2200 | C=C(F)C(=O)Nc1cc2c(Nc3ccc(F)c(Cl)c3F)ncnc2cc1OCCCN1CCOCC1 [Compound 24, N-[4-(3-chloro-2,4-difluoro-phenylamino)-7-(3-morpholin-4-yl-propoxy)-quinazolin-6-yl]-2-fluoro-acrylamide]
0.19 | 1200 | 1900 | C#Cc1cccc(Nc2ncnc3cc(OCCCN4CCOCC4)c(NC(=O)C(=C)F)cc23)c1 [Compound 25, N-[4-(3-ethynyl-phenylamino)-7-(3-morpholin-4-yl-propoxy)-quinazolin-6-yl]-2-fluoro-acrylamide]
0.35 | 4500 | 5400 | C=C(F)C(=O)Nc1cc2c(Nc3cccc(Cl)c3F)ncnc2cc1OCCCN1CCOCC1 [Compound 26, N-[4-(3-chloro-2-fluoro-phenylamino)-7-(3-morpholin-4-yl-propoxy)-quinazolin-6-yl]-2-fluoro-acrylamide]
 |  | 2700 | C=C(F)C(=O)Nc1cc2c(Nc3cc(OC)c(Cl)cc3Cl)ncnc2cc1OCCCN1CCOCC1 [Compound 27, N-[4-(2,4-dichloro-5-methoxy-phenylamino)-7-(3-morpholin-4-yl-propoxy)-quinazolin-6-yl]-2-fluoro-acrylamide]
0.32 | 29000 | 1400 | C=C(F)C(=O)Nc1cc2c(Nc3cccc(Br)c3)ncnc2cc1OCCCN1CCOCC1 [Compound 28, N-[4-(3-bromo-phenylamino)-7-(3-morpholin-4-yl-propoxy)-quinazolin-6-yl]-2-fluoro-acrylamide]
3.3 | 5900 | 1900 | C=C(F)C(=O)Nc1cc2c(Nc3ccc(OCc4cccc(F)c4)c(Cl)c3)ncnc2cc1OCCCN1CCOCC1 [Compound 29, N-[4-[3-chloro-4-(3-fluoro-benzyloxy)-phenylamino]-7-(3-morpholin-4-yl-propoxy)-quinazolin-6-yl]-2-fluoro-acrylamide]
0.22 | 520 | 1500 | C=C(F)C(=O)Nc1cc2c(Nc3ccc(Cl)c(Cl)c3F)ncnc2cc1OCCCN1CCOCC1 [Compound 30, N-[4-(3,4-dichloro-2-fluoro-phenylamino)-7-(3-morpholin-4-yl-propoxy)-quinazolin-6-yl]-2-fluoro-acrylamide]
1.4 | 6500 | 6000 | C=C(F)C(=O)Nc1cc2c(Nc3ccc(F)cc3F)ncnc2cc1OCCCN1CCOCC1 [Compound 31, N-[4-(2,4-difluoro-phenylamino)-7-(3-morpholin-4-yl-propoxy)-quinazolin-6-yl]-2-fluoro-acrylamide]
0.37 |  |  | C=C(Cl)C(=O)Nc1cc2c(Nc3ccc(F)c(Cl)c3)ncnc2cc1OCCCN1CCOCC1 [Compound 41, N-[4-(3-chloro-4-fluoro-phenylamino)-7-(3-morpholin-4-yl-propoxy)-quinazolin-6-yl]-2-chloro-acrylamide]
 | 8600 | 5600 | C=C(F)C(=O)Nc1cc2c(Nc3ccc(F)c(Cl)c3)ncnc2cc1OC1CCN(C)CC1 [Compound 49, N-[4-(3-chloro-4-fluoro-phenylamino)-7-(1-methyl-piperidin-4-yloxy)-quinazolin-6-yl]-2-fluoro-acrylamide]
